The values that follow come from article PMC4627284, “High-throughput simultaneous screen and counterscreen identifies homoharringtonine as synthetic lethal with von Hippel-Lindau loss in renal cell carcinoma” (Oncotarget, 2015).

Test [1] deals with VHL-deficient 786-O cells. Nature of the test: High-throughput simultaneous screen and counterscreen, 1:1 mix of EV^GFP and VHL^mCh 786-O cells, fluorescence imaging. Format: cell-based, human. The following applies: 2 nM; equally affected VHL-deficient and VHL-reconstituted cells. An excerpt: To identify small molecule compounds synthetic lethal with VHL, we carried out an unbiased cell-based screen of a chemical library of ~12,800 compounds using 786-O cells, an extensively studied cell line derived from a VHL-deficient primary human ccRCC [26]. 786-O cells were stably transfected with either an empty vector (EV) control or reconstituted with an HA-tagged VHL cDNA. […] To distinguish between the two otherwise isogenic cell lines, we transduced the VHL-deficient 786-O cells with a histone H2B-GFP reporter and the VHL-reconstituted cells with an H2B-mCherry reporter. The histone proteins drive the fluorochrome to nuclei facilitating cell identification and segmentation algorithms (Figure 1A and 1B). […]
Figure 1 Screening strategy to identify compounds that are synthetic lethal with VHL A. Schematic diagram of a ~12,800 chemical library synthetic lethal screen. […] Fluorescence imaging (using the BD Pathway 855 imager) was used to identify compounds preferentially depleting VHL-deficient/GFP-positive cells after cells were segmented. B. Left panel: Representative image of fluorescence signal from Hoescht-labeled 786-O cells. Right panel: overlay of GFP fluorescence signal (green; from 786-O EV^GFP cells) and mCherry fluorescence nuclear signal (red; VHL^mCh cells). […] Toxicity was determined as ≤100 VHL^mCh cells per field. […]
In general terms: The purpose of a counterscreen is to sort out artefacts and off-target activity.

In test [2] the test system is VHL-mutant patient-derived ccRCC tumorgraft lines. Nature of the test: ccRCC tumorgraft model, six VHL-mutant tumorgraft lines. It is filed as in vivo, NOD/SCID mice. The following applies: 0.5 mg/kg IP once every 48 hours, positive control. How it is done: We selected 6 independently-derived ccRCC tumorgraft lines that were confirmed to have VHL mutation. The mice (3-5 mice per tumorgraft line) were treated with either HHT (0.7 mg/kg), vehicle (as a negative control), or rapamycin (0.5 mg/kg; as a positive control). In total, 65 tumorgraft bearing mice were evaluated for these experiments in time courses lasting ~28 days, with tumor growth measured every 3 or 4 days.
Figure 3 HHT inhibits tumor growth in a ccRCC tumorgraft model A-F, Tumorgraft lines were treated with vehicle control, HHT (0.7 mg/kg), rapamycin (0.5 mg/kg), (or the combination, where indicated) and tumor growth was measured on the indicated days. Day 0 represents the first day of treatment.
Tumorgrafts were generated and propagated as described previously, with tumor samples implanted subcutaneously into the flank of the mouse for drug trials. Briefly, 4- to 8-week-old NOD/SCID mice were anesthetized with isoflurane and implanted subcutaneously with 64 mm^3 tumor fragments (cohorts 2-20). Once tumors reached an average of at least ~250 mm^3, drug treatment was begun. The mice were treated with vehicle, 0.7 mg/kg homoharringtonine (HHT) via gavage twice daily, or 0.5 mg/kg rapamycin given by IP injection once every 48 hours. Tumor size (volume) was measured twice weekly and was obtained by multiplying tumor length, width, and depth using calipers. To assess toxicity, mouse weight was monitored once weekly.
Sections from tumors were stained with hematoxylin and eosin (H&E) as described previously.

In the case of `CO[C@H]1C[C@@H]2CC[C@@H](C)[C@@](O)(O2)C(=O)C(=O)N2CCCC[C@H]2C(=O)O[C@H]([C@H](C)C[C@@H]2CC[C@@H](O)[C@H](OC)C2)CC(=O)[C@H](C)/C=C(\C)[C@@H](O)[C@@H](OC)C(=O)[C@H](C)C[C@H](C)/C=C/C=C/C=C/1C` [rapamycin, Rapamycin (sirolimus)], the “effect on cell proliferation” value in test [1] is reported as “modestly reduced cell proliferation”. Also, the “response of tumorgraft lines” value in test [2] is listed as “Most lines responded”.
